Results: US4732970A, “Antitumor amino acid and peptide derivatives of 1,4-bis(aminoalkyl and hydroxy-aminoalkyl)amino)-5,8-dihydroxyanthraquinones” (priority 1986, dated 1988)

Legend:
[1] = system: melanotic melanoma B16 tumor; assay: Melanotic Melanoma B16 test; assay type: in vivo, BDF1 mice; details: for Median Survival: BDF1 mice; for T/C × 100 (%): ratio of survival time treated/control
Description: The animals used were BDFl mice, all of the same sex, weighing a minimum of 17 g and all within a 3 g weight range. There were 12 animals per test group. A 1 g portion of melanotic melanoma B16 tumor was homogenized in 10 ml of cold balanced salt solution and a 0.5 ml aliquot of the homogenate was implanted intraperitoneally into each of the test mice. The test compounds were administered intraperitoneally on days 1, 5 and 9 (relative to tumor inoculation) at various doses. The animals were weighed and survivors recorded on a regular basis for 60 days. The median survival time and ratio of survival time for treated (T)/control (C) animals were calculated. The positive control compound was 1,4-bis[(2-aminoethyl)amino]-5,8-dihydroxyanthraquinone, dihydrochloride (U.S. patent application Ser. No. 87,354, filed Oct. 23, 1979).

[2] = system: lymphocytic leukemia P388; assay: Lymphocytic Leukemia P388 Test; assay type: in vivo, BDF1 mice; details: for Median Survival: BDF1 mice
Method in brief: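 BDF1 mice (5–6 per group) were inoculated i.p. with 10^6 P388 cells, then dosed i.p. on days 1, 5 and 9 at various doses. Survival was followed for 60 days, and median survival time and the treated/control (T/C) survival ratio were calculated.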

[3] = dose 0.75 mg/kg intraperitoneally on days 1, 5 and 9
[4] = dose 1.5 mg/kg intraperitoneally on days 1, 5 and 9
[5] = dose 3 mg/kg intraperitoneally on days 1, 5 and 9
[6] = dose 0.75 mg/kg intraperitoneally on days 1, 5 and 9, ratio of survival time treated/control
[7] = dose 1.5 mg/kg intraperitoneally on days 1, 5 and 9, ratio of survival time treated/control
[8] = dose 3 mg/kg intraperitoneally on days 1, 5 and 9, ratio of survival time treated/control

Q: How did the “Median Survival” value [1, 3] turn out when Cl.Cl.N[C@@H](CCC(=O)O)C(=O)NCCNc1ccc(NCCNC(=O)[C@@H](N)CCC(=O)O)c2c1C(=O)c1c(O)ccc(O)c1C2=O (relative stereo) [Example 23, [S-(R*,R*)]-5,5'-[(9,10-Dihydro-5,8-dihydroxy-9,10-dioxo-1,4-anthracenediyl)bis(imino-2,1-ethanediylimino)]-bis[4-amino-5-oxo-pentanoic acid], dihydrochloride] was run?
A: The value was 27.5 days.

Q: And the “T/C × 100 (%)” value [1, 3]?
A: Its value is 162%.

Q: What about the “Median Survival” value [1, 4] of the same molecule?
A: Its value is 31.0 days.

Q: And the “T/C × 100 (%)” value [1, 4]?
A: Its value is 182%.

Q: And the “Median Survival” value [1, 5]?
A: Its value is 22.0 days.

Q: What about the “T/C × 100 (%)” value [1, 5] of the same molecule?
A: The value was 129%.

Q: And the “Median Survival” value [2, 3]?
A: The value was 22.0 days.

Q: What about the “T/C × 100 (%)” value [2, 6] of the same molecule?
A: The value was 220%.

Q: And the “Median Survival” value [2, 4]?
A: Its value is 24.5 days.

Q: What about the “T/C × 100 (%)” value [2, 7] of the same molecule?
A: Its value is 245%.

Q: And the “Median Survival” value [2, 5]?
A: Its value is 41.0 days.

Q: And the “T/C × 100 (%)” value [2, 8]?
A: Its value is 410%.

Q: For C[C@@H](O)[C@H](N)C(=O)NCCNc1ccc(NCCNC(=O)[C@@H](N)[C@@H](C)O)c2c1C(=O)c1c(O)ccc(O)c1C2=O.O=C(O)C(F)(F)F.O=C(O)C(F)(F)F (relative stereo) [Example 26, [2S-(2R*,2'R*,3S*,3'S*)]-N,N'-[(9,10-Dihydro-5,8-dihydroxy-9,10-dioxo-1,4-anthracenediyl)bis(imino-2,1-ethanediyl)]bis[2-amino-3-hydroxybutanamide]bis(trifluo roacetate)], which “Median Survival” value [1, 3] is on record?
A: Its value is 35.0 days.

Q: What about the “T/C × 100 (%)” value [1, 3] of the same molecule?
A: The value was 206%.

Q: What about the “Median Survival” value [1, 4] of the same molecule?
A: The value was 39.5 days.

Q: And the “T/C × 100 (%)” value [1, 4]?
A: The value was 232%.

Q: And the “Median Survival” value [1, 5]?
A: The value was 40.0 days.

Q: What about the “T/C × 100 (%)” value [1, 5] of the same molecule?
A: The value was 235%.

Q: What about the “Median Survival” value [2, 3] of the same molecule?
A: The value was 21.0 days.

Q: What about the “T/C × 100 (%)” value [2, 6] of the same molecule?
A: The value was 210%.

Q: What about the “Median Survival” value [2, 4] of the same molecule?
A: Its value is 22.5 days.

Q: And the “T/C × 100 (%)” value [2, 7]?
A: The value was 225%.

Q: What about the “Median Survival” value [2, 5] of the same molecule?
A: The value was 33.5 days.

Q: What about the “T/C × 100 (%)” value [2, 8] of the same molecule?
A: The value was 335%.

Q: Which “Median Survival” value [1, 3] does the source give for Br.Br.Br.Br.NCCCC[C@H](N)C(=O)NCCNc1ccc(NCCNC(=O)[C@@H](N)CCCCN)c2c1C(=O)c1c(O)ccc(O)c1C2=O (relative stereo) [Example 33, [S-(R*,R*)]-N,N'-[(9,10-Dihydro-5,8-dihydroxy-9,10-dioxo-1,4-anthracenediyl)bis(imino-2,1-ethanediyl)]bis[2,6-diaminohexanamide], tetrahydrobromide] here?
A: Its value is 26.5 days.

Q: And the “T/C × 100 (%)” value [1, 3]?
A: The value was 156%.

Q: And the “Median Survival” value [1, 4]?
A: The value was 37.5 days.

Q: And the “T/C × 100 (%)” value [1, 4]?
A: The value was 221%.

Q: And the “Median Survival” value [1, 5]?
A: Its value is 25.5 days.

Q: What about the “T/C × 100 (%)” value [1, 5] of the same molecule?
A: Its value is 162%.

Q: What about the “Median Survival” value [2, 3] of the same molecule?
A: Its value is 23.0 days.

Q: What about the “T/C × 100 (%)” value [2, 6] of the same molecule?
A: Its value is 230%.

Q: And the “Median Survival” value [2, 4]?
A: Its value is 33.0 days.

Q: And the “T/C × 100 (%)” value [2, 7]?
A: The value was 330%.

Q: And the “Median Survival” value [2, 5]?
A: Its value is 13.0 days.

Q: And the “T/C × 100 (%)” value [2, 8]?
A: Its value is 130%.

Q: How did the “Median Survival” value [1, 4] turn out when Cl.Cl.NCCNc1ccc(NCCN)c2c1C(=O)c1c(O)ccc(O)c1C2=O [1,4-bis[(2-aminoethyl)amino]-5,8-dihydroxyanthraquinone, dihydrochloride, reference compound] was run?
A: The value was 46.5 days.

Q: What about the “T/C × 100 (%)” value [1, 4] of the same molecule?
A: Its value is 274%.

Q: With Cl.Cl.NCC(=O)NCCNc1ccc(NCCNC(=O)CN)c2c1C(=O)c1c(O)ccc(O)c1C2=O [Example 19, N,N'-[(9,10-Dihydro-5,8-dihydroxy-9,10-dioxo-1,4-anthracenediyl)bis(imino-2,1-ethanediyl)]bis[2-amino-acetamide], dihydrochloride] as the molecule, how does the “Median Survival” value [1, 3] read?
A: The value was 27.5 days.

Q: And the “T/C × 100 (%)” value [1, 3]?
A: Its value is 162%.

Q: And the “Median Survival” value [1, 4]?
A: Its value is 28.0 days.

Q: What about the “T/C × 100 (%)” value [1, 4] of the same molecule?
A: Its value is 165%.

Q: And the “Median Survival” value [1, 5]?
A: The value was 37.0 days.

Q: What about the “T/C × 100 (%)” value [1, 5] of the same molecule?
A: The value was 218%.

Q: And the response vs control in vivo at 0.75 mg/kg ([2]; Mus musculus, P388, ip, dose 0.75 mg/kg intraperitoneally on days 1, 5 and 9, ratio of survival time treated/control, read-out: T/C × 100 (%))?
A: Its response vs control in vivo at 0.75 mg/kg is 183%.

Q: And the response vs control in vivo at 1.5 mg/kg ([2]; Mus musculus, P388, ip, dose 1.5 mg/kg intraperitoneally on days 1, 5 and 9, ratio of survival time treated/control, read-out: T/C × 100 (%))?
A: The response vs control in vivo at 1.5 mg/kg was 200%.

Q: What about the response vs control in vivo at 3 mg/kg ([2]; Mus musculus, P388, ip, dose 3 mg/kg intraperitoneally on days 1, 5 and 9, ratio of survival time treated/control, read-out: T/C × 100 (%)) of the same molecule?
A: Its response vs control in vivo at 3 mg/kg is 288%.

Q: What about the “Median Survival” value [2, 3] of the same molecule?
A: The value was 22.0 days.

Q: And the “Median Survival” value [2, 4]?
A: The value was 24.0 days.

Q: What about the “Median Survival” value [2, 5] of the same molecule?
A: The value was 34.5 days.
